Target: human insulin receptor (Homo sapiens, UniProt P06213)
Experiment: Insulin receptor binding, SPA (Scintillation Proximity Assay) microtiterplate antibody capture assay
Conditions: relative to human insulin; purified recombinant human insulin receptor - exon 11; A14 Tyr[125I]-human insulin tracer; 16 hours incubation
Protocol: The affinity of the insulin analogues of the invention for the human insulin receptor was determined by a SPA assay (Scintillation Proximity Assay) microtiterplate antibody capture assay. SPA-PVT antibody-binding beads, anti-mouse reagent (Amersham Biosciences, Cat No. PRNQ0017) were mixed with 25 ml of binding buffer (100 mM HEPES pH 7.8; 100 mM sodium chloride, 10 mM MgSO4, 0.025% Tween-20). Reagent mix for a single Packard Optiplate (Packard No. 6005190) is composed of 2.4 μl of a 1:5000 diluted purified recombinant human insulin receptor—exon 11, an amount of a stock solution of A14 Tyr[^125I]-human insulin corresponding to 5000 cpm per 100 μl of reagent mix, 12 μl of a 1:1000 dilution of F12 antibody, 3 ml of SPA-beads and binding buffer to a total of 12 ml. A total of 100 μl was then added and a dilution series is made from appropriate samples. To the dilution series was then added 100 μl of reagent mix and the samples were incubated for 16 hours while gently shaken. The phases were the then separated by centrifugation for 1 min and the plates counted in a Topcounter. The binding data were fitted using the nonlinear regression algorithm in the GraphPad Prism 2.01 (GraphPad Software, San Diego, Calif.).

Sequence of human insulin receptor (P06213 28-746 isoform P06213-2 limits assumed): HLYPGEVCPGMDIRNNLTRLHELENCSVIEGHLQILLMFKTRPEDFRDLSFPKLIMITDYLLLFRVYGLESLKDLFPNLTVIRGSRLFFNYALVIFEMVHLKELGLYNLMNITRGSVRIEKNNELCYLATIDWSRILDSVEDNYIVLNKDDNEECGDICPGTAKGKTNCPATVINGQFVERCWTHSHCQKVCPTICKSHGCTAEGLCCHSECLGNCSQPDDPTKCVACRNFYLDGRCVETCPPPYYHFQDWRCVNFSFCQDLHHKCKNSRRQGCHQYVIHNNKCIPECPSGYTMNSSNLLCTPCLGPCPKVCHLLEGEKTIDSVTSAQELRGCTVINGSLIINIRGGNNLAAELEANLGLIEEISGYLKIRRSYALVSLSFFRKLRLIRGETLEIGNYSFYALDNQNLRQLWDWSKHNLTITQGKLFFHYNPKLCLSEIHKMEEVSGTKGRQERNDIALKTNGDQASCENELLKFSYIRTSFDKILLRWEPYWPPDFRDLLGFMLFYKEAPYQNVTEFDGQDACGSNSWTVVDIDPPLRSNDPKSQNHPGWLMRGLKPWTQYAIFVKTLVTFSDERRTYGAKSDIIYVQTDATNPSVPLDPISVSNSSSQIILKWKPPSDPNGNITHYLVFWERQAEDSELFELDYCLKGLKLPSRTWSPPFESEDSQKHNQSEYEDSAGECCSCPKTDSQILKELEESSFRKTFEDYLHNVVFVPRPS
Sequence of human insulin receptor (P06213 763-1382 partner limits assumed): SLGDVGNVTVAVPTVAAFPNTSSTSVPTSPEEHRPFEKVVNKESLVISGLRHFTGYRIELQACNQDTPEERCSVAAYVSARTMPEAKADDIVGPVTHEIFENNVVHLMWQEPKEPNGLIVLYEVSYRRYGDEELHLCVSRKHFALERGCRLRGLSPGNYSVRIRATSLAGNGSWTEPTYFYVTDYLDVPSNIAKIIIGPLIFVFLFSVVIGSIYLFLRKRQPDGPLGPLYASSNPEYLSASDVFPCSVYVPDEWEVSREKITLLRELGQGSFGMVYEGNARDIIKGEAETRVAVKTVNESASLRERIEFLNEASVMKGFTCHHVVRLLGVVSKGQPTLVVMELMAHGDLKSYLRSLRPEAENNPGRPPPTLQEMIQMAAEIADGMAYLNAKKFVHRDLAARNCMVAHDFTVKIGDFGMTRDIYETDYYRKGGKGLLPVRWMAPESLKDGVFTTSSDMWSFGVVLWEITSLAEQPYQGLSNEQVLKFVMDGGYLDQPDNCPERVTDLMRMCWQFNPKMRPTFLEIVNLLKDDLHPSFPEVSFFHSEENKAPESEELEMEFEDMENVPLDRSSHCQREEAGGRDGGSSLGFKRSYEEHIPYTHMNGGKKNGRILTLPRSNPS

| Insulin receptor affinity in relation to human insulin | Substance |
| --- | --- |
| 17 | N^εB29-(3-(2-{2-[2-(15-Carboxy-pentadecanoylamino)-ethoxy]-ethoxy}-ethylcarbamoyl)-propionyl-γ-glutamyl) desB30 human insulin [example 17] |
| 27 | N^εB29-(3-(2-{2-[2-(9-carboxynonanoylamino)ethoxy]ethoxy}ethylcarbamoyl) propionyl-γ-glutamyl) desB30 human insulin [example 10] |
| 35 | N^εB29-(3-(3-{2-[2-(3-[7-carboxyheptanoylamino]propoxy)ethoxy]-ethoxy}propylcarbamoyl)propionyl) desB30 human insulin [example 7] |
| 34 | N^εB29-(3-(3-{2-[2-(3-[9-Carboxynonanoylamino]propoxy)ethoxy]ethoxy}-propylcarbamoyl)propionyl) desB30 human insulin [example 9] |
| 12 | N^εB29-(3-[2-{2-(2-[ω-carboxy-heptadecanoyl-γ-glutamyl-(2-amino-ethoxy)]-ethoxy)-ethoxy}-ethoxy]-propionyl) desB30 human insulin [example 2] |

Second part, the substance before the results:

| Substance | Insulin receptor affinity in relation to human insulin |
| --- | --- |
| N^εB29-(3-(3-{4-[3-(7-Carboxyheptanoylamino)propoxy]butoxy}propylcarbamoyl)-propionyl-γ-glutamyl) desB30 human insulin [example 8] | 34 |
| N^εB29-(ω-[2-(2-{2-[2-(2-carboxy-ethoxy)-ethoxy]-ethoxy}-ethoxy)-ethylcarbamoyl]-heptadecanoyl-α-glutamyl) desB30 human insulin [example 4] | 9.2 |
| N^εB29-(3-[2-(2-{2-[2-(2-{2-[2-(13-carboxy-tridecanoylamino)-ethoxy]-ethoxy)-ethoxy)-ethoxy]-ethoxy}-ethoxy)-ethoxy]-ethoxy}-propionoyl-γ-glutamyl) desB30 human insulin [example 16] | 31 |
| N^εB29-(ω-[2-(2-{2-[2-(2-carboxy-ethoxy)-ethoxy]-ethoxy}-ethoxy)-ethylcarbamoyl]-heptadecanoyl-γ-glutamyl) desB30 human insulin [example 5] | 5.6 |
| N^εB29-(3-[2-(2-(2-[2-(13-Carboxy-tridecanoylamino)-ethoxy)-ethoxy]-ethoxy)-ethoxy]-propionoyl-γ-glutamyl) desB30 human insulin [example 15] | 35 |
| N^εB29-(3-(2-{2-[2-(2-{2-[2-(2-{2-[2-(2-{2-[2-(13-carboxy-tridecanoylamino)-ethoxy]-ethoxy}-ethoxy)-ethoxy]-ethoxy}-ethoxy)-ethoxy]-ethoxy}-ethoxy)-ethoxy]-ethoxy}-ethoxy)-propionoyl-γ-glutamyl) desB30 human insulin [example 14] | 15 |
| N^εB29-{3-[2-(2-{2-[2-(15-carboxy-pentadecanoylamino)-ethoxy]-ethoxy}-ethoxy)-ethoxy]-propionyl-γ-glutamyl desB30 human insulin [example 3] | 14 |
| N^εB29-3-[2-(2-{2-[2-(ω-carboxy-heptadecanoylamino)-ethoxy]-ethoxy}-ethoxy)-ethoxy]-propionyl-γ-glutamyl desB30 human insulin [example 6] | 8.3 |
| N^εB29-(3-[2-{2-(2-[ω-carboxy-pentadecanoyl-γ-glutamyl-(2-amino-ethoxy)]-ethoxy)-ethoxy}-ethoxy]-propionyl) desB30 human insulin [example 1] | 11 |
| N^εB29-(3-[2-(2-{2-[2-(15-carboxypentadecanoylamino)ethoxy]ethoxy}ethoxy)-ethoxy]propionyl)) desB30 human insulin [example 13] | 17 |
